How the values were obtained:
[1] = Drug Effects on Phenylbenzoquinone-induced Writhing in Mice; assay type: in vivo, Male Swiss albino mice; details: for ED50 / inhibition in vivo at 25 mg/kg: Mus musculus, po; for ED50: value in parentheses, read-out: Phenylquinone Writhing in Mice, ED50; for inhibition in vivo at 25 mg/kg: read-out: Phenylquinone Writhing in Mice, percent inhibition
Protocol: A further test used to determine the utility of the compounds of the present invention is designated: Drug Effects on Phenylbenzoquinone-induced Writhing in Mice
The objective of this test is to determine the ability of test drugs to inhibit the nociceptive (pain) response of mice injected with a chemical irritant. This test is a primary screen for both peripheral and centrally acting analgesic drugs.
Male Swiss albino mice (15-25 g). The animals are fasted for 18 hours prior to use but have free access to water.
(§1) Drug Preparation and Administration:
Drugs are dissolved or suspended according to their solubility in 0.5% Tween 80 in distilled water. They are administered by gastric gavage in a volume of 5 mL/kg. For primary screening all drugs are administered at the arbitrary dosage of 25 mg/kg, p.o. to a group of 10 mice.
A modification of the method of Siegmund et al, Proc. Soc. Exp. Biol. Med., 95, 729-731 (1957) is used. Groups of 5 mice are dosed with the test compound or vehicle control. Sixty minutes later the animals are injected i.p. with 0.3 mL/20 g body weight of a 0.02% solution of phenylbenzoquinone (PBQ; 2-phenyl-1,4-benzoquinone) and placed in individual observation boxes. The number of writhing or abdominal squirming movements made by each mouse during the following 15 min. period is counted. The experiment is repeated with another group of 5 mice and the mean number of writhes per mouse for a group of 10 mice is calculated.
Drug treated and vehicle-treated control groups are compared and the percentage protection conferred by the drug is calculated: [formula] where c=mean number of writhes in the control group where t=mean number of writhes in the test drug group

[2] = Preventative Adjuvant Edema (acute anti-inflammatory effect in rats); assay type: in vivo, Male Sprague Dawley rats; details: for inhibition in vivo at 25 mg/kg / Preventative Adjuvant Edema, percent inhibition: p.o., 25 mg/kg; for inhibition in vivo at 25 mg/kg: read-out: Preventative Adjuvant Edema, percent inhibition
Protocol: This test is a primary screen for anti-inflammatory drugs.
Male Sprague Dawley rats (180-200 g) are used. The animals have free access to water but food is withdrawn 18 hours before testing.
Drug Preparations and Administration:
Freund's complete adjuvant is prepared by suspending 5 mg of killed and dried Mycobacterium butyricum (Difco) in 1 mL mineral oil. The test compounds are dissolved, of suspended in 0.5% Tween 80 in distilled water according to their solubility. For primary screening all drugs are administered by gastric lavage at the arbitrary dosage of 25 mg/kg, p.o. in a volume of 0.5 mL/100 g body weight to groups of 10 animals.
The method is essentially that described by Wax et al, J. Pharmacol. Exp. Ther., 192, 166-171 (1975). Groups of rats are injected intradermally in the left hind paw with 0.1 mL of Freund's complete adjuvant. The test compound or vehicle is administered immediately before the adjuvant, 24 hours and 48 hours after the adjuvant (days 0, 1 and 2). The injected hind paw volume is measured before the injection of adjuvant and 24 hrs. after the last drug administration (day 3) by means of a plethysmometer (Buxco Electronics Inc.). The difference between the hind paw volume on day 0 and day 3 represents the edema volume. Etodolac (25 mg/kg, p.o.) is included as a positive control.
The mean edema volume (expressed as mL±SEM) is calculated for each group and the percentage protection conferred by the drug is calculated: [formula] where c is the mean edema volume for the vehicle-treated (0.5% Tween 80 in distilled water) controls and t is the mean edema volume for the drug treated group.

[3] = Randall Selitto Test in the Rat (pain threshold in inflamed paw); assay type: in vivo, Male Sprague Dawley rats; details: Rattus norvegicus, po, rats, 1 hour after dosing; value in parentheses; read-out: Randall Selitto Test in the Rat, ED50 (dose which causes analgesia in 50% of the animals)
Description: An additional test used to determine the utility of the compounds of the present invention is designated: Randall Selitto Test in the Rat
The objective of this test is to assess the potency of peripheral and central acting drugs in inhibiting the reaction of rats to painful stimulation applied to an inflamed paw.
Male Sprague Dawley rats (180-200 g) are used. The animals are fasted overnight prior to drug administration.
as §1
Freund's Complete Adjuvant (FCA) is prepared by suspending 5 mg killed and dried mycobacterium butyricum (Difco) in 1 mL mineral oil. The test compounds are dissolved or suspended in 0.5% Tween 80 in distilled water according to their solubility. They are administered by gastric gavage in a volume of 0.5 mL/100 g body weight to groups of 10 animals.
Ten rats are used per group. The method is essentially that described by Randall and Selitto, Arch. Int. Pharmacodyn. 111, 409 (1957) and the apparatus which is used to apply pressure to the paw (Analgesi-meter for the rat paw, Ugo Basile, Comeria, Italy) is a modification of that described by Gilfoil et al, J. Pharmacol. 142, 1 (1963). The instrument is basically a device which exerts a force that increases at a constant rate. The force is continuously monitored by a pointer moving along a linear scale and is measured in grams. The inflammatory reaction is induced in the left hind paw of rats of injecting 0.1 mL of Freund's adjuvant intradermally. The test compound or vehicle is administered 24 hours after the adjuvant. The pain threshold (vocalization) is determined 1 hour later in the inflamed paw of the treated and control groups.
Presentation of Results and Criteria for Activity:
Each animal which has a reading 1.5 times greater than the mean reading of the control-group will be considered as responsive (having an analgesic effect) to treatment. The number of animals showing an analgesic effect is then determined in each group.
The ED50 (dose which causes analgesia in 50% of the animals) using at least 3 doses is then determined, by the method described in Litchfield and Wilcoxon, J. Pharmacol. Exp. Ther., 96, 99-113 (1949).

Row | SMILES | inhibition in vivo at 25 mg/kg ([2]; Rattus norvegicus, po, 72 h) [%] | inhibition in vivo at 25 mg/kg ([1]; 25 mg/kg, p.o.) [%] | other results
1 | CCC1(CC(=O)O)OCC(Cc2ccccc2)c2c1[nH]c1ccccc21 (single isomer, unassigned; isomer a) [Example 1, 1-Ethyl-1,3,4,9-tetrahydro-4-(phenylmethyl)-pyrano[3,4-b]indole-1-acetic Acid (Isomer A)] | 37 |  | ED50 [1]: 1.9 mg/kg; ED50 [3]: 3 µg/kg
2 | CCC1(CC(=O)O)OCC(Cc2ccccc2)c2c1[nH]c1ccc(Br)cc21 (single isomer, unassigned) [Example 25, 6-bromo-1-ethyl-1,3,4,9-tetrahydro-4-(phenylmethyl)-pyrano[3,4-b]indole-1-acetic acid] |  |  | ED50 [1]: 3.1 mg/kg
3 | C=CCC1COC(CC)(CC(=O)O)c2[nH]c3c(CC)cccc3c21 (single isomer, unassigned) [Example 11, 1,8-diethyl-1,3,4,9-tetrahydro-4-(2-propenyl)-pyrano[3,4-b]indole-1-acetic acid] | 55 | 11 | 
4 | CCC1(CC(=O)O)OCC(Cc2ccccc2)c2c1[nH]c1c(C)c(Cl)ccc21 (single isomer, unassigned) [Example 20, 7-chloro-1-ethyl-1,3,4,9-tetrahydro-8-methyl-4-(phenylmethyl)-pyrano[3,4-b]indole-1-acetic acid] |  | 11 | Preventative Adjuvant Edema, percent inhibition [2]: 34%
5 | C=CCC1COC(CC)(CC(=O)O)c2[nH]c3ccccc3c21 (single isomer, unassigned) [Example 15] |  |  | Phenylquinone Writhing in Mice, percent inhibition ([1]; 25 mg/kg, p.o.): 25%; Preventative Adjuvant Edema, percent inhibition [2]: 30%
6 | C=CCC1COC(CC)(CC(=O)O)c2[nH]c3c(CCC)cccc3c21 (single isomer, unassigned) [Example 13, 1-ethyl-1,3,4,9-tetrahydro-4-(2-propenyl)-8-propyl-pyrano[3,4-b]indole-1-acetic acid] | 36 | 2 | 
7 | CCC1(CC(=O)O)OCC(Cc2ccccc2)c2c1[nH]c1ccccc21 (single isomer, unassigned; isomer b) [Example 3, 1-Ethyl-1,3,4,9-tetrahydro-4-(phenylmethyl)-pyrano[3,4-b]indole-1-acetic Acid (Isomer B)] |  | 19 | 
8 | CCC1(CC(=O)O)OCC(Cc2ccccc2)c2c1[nH]c1ccc(Br)cc21 (single isomer, unassigned) [Example 26, 6-bromo-1-ethyl-1,3,4,9-tetrahydro-4-(phenylmethyl)-pyrano[3,4-b]indole-1-acetic acid] |  | 10 | 
9 | CCC1(CC(=O)O)OCC(Cc2ccc(OC)cc2)c2c1[nH]c1ccccc21 (single isomer, unassigned) [Example 41] |  | 30 | 
10 | CCC1(CC(=O)O)OCC(Cc2ccccc2)c2c1[nH]c1cc(Cl)ccc21 (single isomer, unassigned) [Example 34, 7-chloro-1-ethyl-1,3,4,9-tetrahydro-4-(phenylmethyl)-pyrano[3,4-b]indole-1-acetic acid] |  |  | ED50 [1]: 1.4 mg/kg
11 | C=CCC1COC(CC)(CC(=O)O)c2[nH]c3c(C)c(Cl)ccc3c21 (single isomer, unassigned) [Example 17, 7-chloro-1-ethyl-1,3,4,9-tetrahydro-8-methyl-4-(2-propenyl)-pyrano[3,4-b]indole-1-acetic acid] | 44 | 11 | 
12 | CCC1(CC(=O)O)OCC(Cc2ccc(Cl)cc2)c2c1[nH]c1ccccc21 (single isomer, unassigned) [Example 40] | 60 | 47 | 
13 | CCC1(CC(=O)O)OCC(Cc2ccccc2)c2c1[nH]c1c(Cl)ccc(C)c21 (single isomer, unassigned) [Example 24, 8-chloro-1-ethyl-1,3,4,9-tetrahydro-5-methyl-4-(phenylmethyl)-pyrano[3,4-b]indole-1-acetic acid] |  | 0 | Preventative Adjuvant Edema, percent inhibition [2]: 2%
14 | C=CCC1COC(CC)(CC(=O)O)c2[nH]c3ccc(F)cc3c21 (single isomer, unassigned) [Example 27] |  | 24 | 
15 | CCC1(CC(=O)O)OCC(Cc2ccccc2)c2c1[nH]c1c(C)ccc(Cl)c21 (single isomer, unassigned) [Example 29, 5-chloro-1-ethyl-1,3,4,9-tetrahydro-8-methyl-4-(phenylmethyl)-pyrano[3,4-b]indole-1-acetic acid] |  |  | ED50 [1]: 3.2 mg/kg
16 | C=CCC1COC(CC)(CC(=O)O)c2[nH]c3c(C)c(F)ccc3c21 (single isomer, unassigned; isomer b) [Example 7, 1-Ethyl-7-fluoro-1,3,4,9-tetrahydro-8-methyl-4-(2-propenyl)pyrano[3,4-b]indole-1-acetic Acid (Isomer B)] | 37 | 15 | 
17 | C=CCC1COC(CC)(CC(=O)O)c2[nH]c3ccccc3c21 (single isomer, unassigned) [Example 14] | 46 | 21 | 
18 | C=CCC1COC(CC)(CC(=O)O)c2[nH]c3c(C)c(F)ccc3c21 (single isomer, unassigned; isomer a) [Example 6, 1-Ethyl-7-fluoro-1,3,4,9-tetrahydro-8-methyl-4-(2-propenyl)pyrano[3,4-b]indole-1-acetic Acid (Isomer A)] |  |  | ED50 [1]: 18 mg/kg; ED50 ([2]; Rattus norvegicus, po, 72 h, value in parentheses): 3.2 mg/kg
19 | CCc1cccc2c3c([nH]c12)C(CC)(CC(=O)O)OCC3Cc1ccccc1 (single isomer, unassigned; isomer b) [Example 5, 1,8-Diethyl-1,3,4,9-tetrahydro-4-(phenylmethyl-pyrano[3,4-b]indole-1-aceticAcid (Isomer B)] |  |  | Preventative Adjuvant Edema, percent inhibition [2]: 4%
20 | CCC1(CC(=O)O)OCC(Cc2ccccc2)c2c1[nH]c1c(Cl)ccc(C)c21 (single isomer, unassigned) [Example 23, 8-chloro-1-ethyl-1,3,4,9-tetrahydro-5-methyl-4-(phenylmethyl)-pyrano[3,4-b]indole-1-acetic acid] |  |  | ED50 [1]: 1.4 mg/kg; Preventative Adjuvant Edema, percent inhibition [2]: 0%
21 | CCC1(CC(=O)O)OCC(Cc2ccccc2)c2c1[nH]c1c(C)cccc21 (single isomer, unassigned) [Example 21, 1-ethyl-1,3,4,9-tetrahydro-8-methyl-4-(phenylmethyl)-pyrano[3,4-b]indole-1-acetic acid] | 40 | 11 | 
